Results taken from PubChem BioAssay (NCI).
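Interpolation was linear, between the two tested concentrations surrounding the appropriate level; five concentrations were tested over 48 hours in 96-well plates. Abbreviation: GI50, concentration required for 50% inhibition of growth. TGI: concentration producing complete growth inhibition.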

Tests used:
Test in all cases: DTP human tumour cell line panel, 48 h
PC-3 prostate = system: PC-3 prostate
HCT-15 colon = system: HCT-15 colon
HCT-116 colon = system: HCT-116 colon
EKVX NSCLC = system: EKVX NSCLC
MDA-MB-435 = system: MDA-MB-435
UO-31 renal = system: UO-31 renal
HL-60(TB) leukemia = system: HL-60(TB) leukemia
LOX IMVI melanoma = system: LOX IMVI melanoma
SK-MEL-5 melanoma = system: SK-MEL-5 melanoma
A549 NSCLC = system: A549 NSCLC
SR leukemia = system: SR leukemia
MOLT-4 leukemia = system: MOLT-4 leukemia
HS 578T breast = system: HS 578T breast
TK-10 renal = system: TK-10 renal
M14 melanoma = system: M14 melanoma
MDA-MB-468 breast = system: MDA-MB-468 breast
KM12 colon = system: KM12 colon
U251 CNS = system: U251 CNS
SF-539 CNS = system: SF-539 CNS
OVCAR-5 ovarian = system: OVCAR-5 ovarian
OVCAR-8 ovarian = system: OVCAR-8 ovarian
K-562 leukemia = system: K-562 leukemia
OVCAR-3 ovarian = system: OVCAR-3 ovarian
HCC-2998 colon = system: HCC-2998 colon
NCI/ADR-RES ovarian = system: NCI/ADR-RES ovarian
DU-145 prostate = system: DU-145 prostate
NCI-H23 lung = system: NCI-H23 lung
RPMI-8226 leukemia = system: RPMI-8226 leukemia
MCF7 breast = system: MCF7 breast
OVCAR-4 ovarian = system: OVCAR-4 ovarian
HOP-92 NSCLC = system: HOP-92 NSCLC
786-0 renal = system: 786-0 renal
SK-MEL-2 melanoma = system: SK-MEL-2 melanoma
NCI-H522 lung = system: NCI-H522 lung
A498 renal = system: A498 renal
HOP-62 NSCLC = system: HOP-62 NSCLC
MALME-3M melanoma = system: MALME-3M melanoma
NCI-H226 lung = system: NCI-H226 lung
COLO 205 colon = system: COLO 205 colon
SK-MEL-28 melanoma = system: SK-MEL-28 melanoma
SN12C renal = system: SN12C renal
RXF 393 renal = system: RXF 393 renal
SK-OV-3 ovarian = system: SK-OV-3 ovarian
SW-620 colon = system: SW-620 colon
ACHN renal = system: ACHN renal
IGROV1 ovarian = system: IGROV1 ovarian
T-47D breast = system: T-47D breast
NCI-H460 lung = system: NCI-H460 lung
UACC-257 melanoma = system: UACC-257 melanoma
MDA-MB-231 breast = system: MDA-MB-231 breast
CAKI-1 renal = system: CAKI-1 renal
SF-295 CNS = system: SF-295 CNS
SNB-19 CNS = system: SNB-19 CNS
SF-268 CNS = system: SF-268 CNS
BT-549 breast = system: BT-549 breast
CCRF-CEM leukemia = system: CCRF-CEM leukemia
SNB-75 CNS = system: SNB-75 CNS
UACC-62 melanoma = system: UACC-62 melanoma
HT29 colon = system: HT29 colon

CCc1ccccc1NC(=O)N/C(N)=N/c1nc2ccccc2s1 was tested, and the GI50 (PC-3 prostate) was 52.8 nM, the TGI (PC-3 prostate) was 18800 nM and the GI50 (HCT-15 colon) was 29.3 nM. It also gave a TGI (HCT-15 colon) of 7030 nM, a GI50 (HCT-116 colon) of 37.7 nM and a TGI (HCT-116 colon) of 1470 nM. For the same compound, the GI50 (EKVX NSCLC) was 50.3 nM, the TGI (EKVX NSCLC) was 16100 nM and the GI50 (MDA-MB-435) was < 14.6 nM. For the same compound, the TGI (MDA-MB-435) was 38.9 nM, the GI50 (UO-31 renal) was 97.9 nM and the TGI (UO-31 renal) was 34600 nM. The GI50 (HL-60(TB) leukemia) was 33.4 nM, the TGI (HL-60(TB) leukemia) was 6310 nM and the GI50 (LOX IMVI melanoma) was 43.1 nM. It also gave a TGI (LOX IMVI melanoma) of 4620 nM, a GI50 (SK-MEL-5 melanoma) of 31.1 nM and a TGI (SK-MEL-5 melanoma) of 116 nM. For the same compound, the GI50 (A549 NSCLC) was 64 nM, the TGI (A549 NSCLC) was > 38800 nM and the GI50 (SR leukemia) was 120 nM. It also gave a TGI (SR leukemia) of 21600 nM, a GI50 (MOLT-4 leukemia) of 62.8 nM and a TGI (MOLT-4 leukemia) of 18700 nM. For the same compound, the GI50 (HS 578T breast) was 28.1 nM, the TGI (HS 578T breast) was 7270 nM and the GI50 (TK-10 renal) was 4490 nM. It also gave a TGI (TK-10 renal) of 50000 nM, a GI50 (M14 melanoma) of 28.6 nM and a TGI (M14 melanoma) of 911 nM. The GI50 (MDA-MB-468 breast) was 23.3 nM, the TGI (MDA-MB-468 breast) was 62.5 nM and the GI50 (KM12 colon) was 38.1 nM. For the same compound, the TGI (KM12 colon) was 11100 nM, the GI50 (U251 CNS) was 37 nM and the TGI (U251 CNS) was 5640 nM. It also gave a GI50 (SF-539 CNS) of 21.1 nM, a TGI (SF-539 CNS) of 64.2 nM and a GI50 (OVCAR-5 ovarian) of 53.3 nM. It also gave a TGI (OVCAR-5 ovarian) of 12000 nM, a GI50 (OVCAR-8 ovarian) of 37 nM and a TGI (OVCAR-8 ovarian) of 3520 nM. The GI50 (K-562 leukemia) was 23.3 nM, the TGI (K-562 leukemia) was 14400 nM and the GI50 (OVCAR-3 ovarian) was 39.6 nM. For the same compound, the TGI (OVCAR-3 ovarian) was 1550 nM, the GI50 (HCC-2998 colon) was 29.1 nM and the TGI (HCC-2998 colon) was 3050 nM. The GI50 (NCI/ADR-RES ovarian) was 24.4 nM, the TGI (NCI/ADR-RES ovarian) was 64.3 nM and the GI50 (DU-145 prostate) was 48.3 nM. The TGI (DU-145 prostate) was 2500 nM, the GI50 (NCI-H23 lung) was 45.4 nM and the TGI (NCI-H23 lung) was 5480 nM. For the same compound, the GI50 (RPMI-8226 leukemia) was 44.5 nM, the TGI (RPMI-8226 leukemia) was 21100 nM and the GI50 (MCF7 breast) was 32.9 nM. It also gave a TGI (MCF7 breast) of 12300 nM, a GI50 (OVCAR-4 ovarian) of 1670 nM and a TGI (OVCAR-4 ovarian) of 24700 nM. It also gave a GI50 (HOP-92 NSCLC) of 3090 nM, a TGI (HOP-92 NSCLC) of 29600 nM and a GI50 (786-0 renal) of 89.8 nM. The TGI (786-0 renal) was 5140 nM, the GI50 (SK-MEL-2 melanoma) was 33.8 nM and the TGI (SK-MEL-2 melanoma) was 10800 nM. For the same compound, the GI50 (NCI-H522 lung) was < 16.7 nM, the TGI (NCI-H522 lung) was 90 nM and the GI50 (A498 renal) was 16400 nM. For the same compound, the TGI (A498 renal) was 45600 nM, the GI50 (HOP-62 NSCLC) was 69.6 nM and the TGI (HOP-62 NSCLC) was 4550 nM. The GI50 (MALME-3M melanoma) was 62.2 nM, the TGI (MALME-3M melanoma) was 11300 nM and the GI50 (NCI-H226 lung) was 144 nM. It also gave a TGI (NCI-H226 lung) of 1520 nM, a GI50 (COLO 205 colon) of 29.4 nM and a TGI (COLO 205 colon) of 94 nM. The GI50 (SK-MEL-28 melanoma) was 2830 nM, the TGI (SK-MEL-28 melanoma) was 21300 nM and the GI50 (SN12C renal) was 43.8 nM. The TGI (SN12C renal) was 6910 nM, the GI50 (RXF 393 renal) was 22.5 nM and the TGI (RXF 393 renal) was 7530 nM. It also gave a GI50 (SK-OV-3 ovarian) of 150 nM, a TGI (SK-OV-3 ovarian) of 33600 nM and a GI50 (SW-620 colon) of 42.2 nM. It also gave a TGI (SW-620 colon) of 15700 nM, a GI50 (ACHN renal) of 79.3 nM and a TGI (ACHN renal) of 6210 nM. For the same compound, the GI50 (IGROV1 ovarian) was 56.7 nM, the TGI (IGROV1 ovarian) was 15200 nM and the GI50 (T-47D breast) was 15100 nM. The TGI (T-47D breast) was > 100000 nM, the GI50 (NCI-H460 lung) was 35.4 nM and the TGI (NCI-H460 lung) was 3820 nM. The GI50 (UACC-257 melanoma) was 4670 nM, the TGI (UACC-257 melanoma) was > 54400 nM and the GI50 (MDA-MB-231 breast) was 40.5 nM. It also gave a TGI (MDA-MB-231 breast) of 598 nM, a GI50 (CAKI-1 renal) of 63.1 nM and a TGI (CAKI-1 renal) of 7200 nM. For the same compound, the GI50 (SF-295 CNS) was 23.4 nM, the TGI (SF-295 CNS) was 2040 nM and the GI50 (SNB-19 CNS) was 51.7 nM. The TGI (SNB-19 CNS) was 14600 nM, the GI50 (SF-268 CNS) was 336 nM and the TGI (SF-268 CNS) was > 100000 nM. The GI50 (BT-549 breast) was 91 nM, the TGI (BT-549 breast) was 1790 nM and the GI50 (CCRF-CEM leukemia) was 38.2 nM. For the same compound, the TGI (CCRF-CEM leukemia) was 13500 nM, the GI50 (SNB-75 CNS) was < 18 nM and the TGI (SNB-75 CNS) was 4640 nM. For the same compound, the GI50 (UACC-62 melanoma) was 38.3 nM, the TGI (UACC-62 melanoma) was 22700 nM and the GI50 (HT29 colon) was 31.6 nM. It also gave a TGI (HT29 colon) of 135 nM.
